Assay results taken from ChEMBL document CHEMBL4602670, “Palhinosides A-H: Flavone Glucosidic Truxinate Esters with Neuroprotective Activities from Palhinhaea cernua” (J Nat Prod, 2020).
Calls of active or inactive are those of the source. The rule behind the calls is not given here.

The compounds below were run on HT-22 (assay: Neuroprotective activity against glutamate-induced cell damage in mouse HT22 assessed as increase cell viability at 0.6 to 15 uM after 24 hrs by luminescent cell viability assay).
Assay type: functional, cell-based
In the case of `O=C(OC[C@H]1O[C@@H](Oc2cc(O)c3c(=O)cc(-c4ccc(O)cc4)oc3c2)[C@H](O)[C@@H](O)[C@@H]1O)[C@@H]1[C@H](C(=O)OC[C@H]2O[C@@H](Oc3cc(O)c4c(=O)cc(-c5ccc(O)cc5)oc4c3)[C@H](O)[C@@H](O)[C@@H]2O)[C@@H](c2ccc(O)cc2)[C@H]1c1ccc(O)cc1`, the Activity is reported as “inactive”. With `O=C(OC[C@H]1O[C@@H](Oc2cc(O)c3c(=O)cc(-c4ccc(O[C@H]5O[C@@H](CO)[C@H](O)[C@@H](O)[C@@H]5O)cc4)oc3c2)[C@H](O)[C@@H](O)[C@@H]1O)[C@@H]1[C@H](C(=O)OC[C@H]2O[C@@H](Oc3cc(O)c4c(=O)cc(-c5ccc(O)cc5)oc4c3)[C@H](O)[C@@H](O)[C@@H]2O)[C@@H](c2ccc(O)cc2)[C@H]1c1ccc(O)cc1` the Activity was “inactive”. In the case of `O=C(OC[C@H]1O[C@@H](Oc2cc(O)c3c(=O)cc(-c4ccc(O)cc4)oc3c2)[C@H](O)[C@@H](O)[C@@H]1O)[C@H]1[C@H](C(=O)OC[C@H]2O[C@@H](Oc3cc(O)c4c(=O)cc(-c5ccc(O[C@H]6O[C@@H](CO)[C@H](O)[C@@H](O)[C@@H]6O)cc5)oc4c3)[C@H](O)[C@@H](O)[C@@H]2O)[C@H](c2ccc(O)cc2)[C@H]1c1ccc(O)cc1`, the Activity is reported as “inactive”. `O=C(OC[C@H]1O[C@@H](Oc2cc(O)c3c(=O)cc(-c4ccc(O[C@H]5O[C@@H](CO)[C@H](O)[C@@H](O)[C@@H]5O)cc4)oc3c2)[C@H](O)[C@@H](O)[C@@H]1O)[C@H]1[C@H](C(=O)OC[C@H]2O[C@@H](Oc3cc(O)c4c(=O)cc(-c5ccc(O[C@H]6O[C@@H](CO)[C@H](O)[C@@H](O)[C@@H]6O)cc5)oc4c3)[C@H](O)[C@@H](O)[C@@H]2O)[C@H](c2ccc(O)cc2)[C@H]1c1ccc(O)cc1` was tested, and the Activity was “inactive”.

These compounds were tested on HT-22 (assay: Neuroprotective activity in mouse HT22 assessed as decrease in glutamate-induced ROS generation preincubated for 8 hrs followed by addition of 2,7-dichlorofluorescein diacetate and measured after 30 mins by fluorescence based assay).
Assay type: functional, cell-based
`COC(=O)[C@H]1[C@@H](C(=O)OC[C@H]2O[C@@H](Oc3cc(O)c4c(=O)cc(-c5ccc(O)cc5)oc4c3)[C@H](O)[C@@H](O)[C@@H]2O)[C@H](c2ccc(O)cc2)[C@@H]1c1ccc(O)cc1` was tested, and the Activity was “Dose-dependent effect”.

These compounds were tested on HT-22 (assay: Neuroprotective activity against glutamate-induced cell damage in mouse HT22 assessed as increase cell viability at 1.3 to 15 uM after 24 hrs by luminescent cell viability assay).
Assay type: functional, cell-based
In the case of `COC(=O)[C@H]1[C@H](C(=O)OC[C@H]2O[C@@H](Oc3cc(O)c4c(=O)cc(-c5ccc(O[C@@H]6O[C@H](CO)[C@@H](O)[C@H](O)[C@H]6O)cc5)oc4c3)[C@H](O)[C@@H](O)[C@@H]2O)[C@H](c2ccc(O)cc2)[C@H]1c1ccc(O)cc1`, the Activity is reported as “Active”. With `COC(=O)[C@H]1[C@@H](C(=O)OC[C@H]2O[C@@H](Oc3cc(O)c4c(=O)cc(-c5ccc(O)cc5)oc4c3)[C@H](O)[C@@H](O)[C@@H]2O)[C@H](c2ccc(O)cc2)[C@@H]1c1ccc(O)cc1` the Activity was “Active”. In the case of `COC(=O)[C@H]1[C@H](C(=O)OC[C@H]2O[C@@H](Oc3cc(O)c4c(=O)cc(-c5ccc(O)cc5)oc4c3)[C@H](O)[C@@H](O)[C@@H]2O)[C@H](c2ccc(O)cc2)[C@H]1c1ccc(O)cc1`, the Activity is reported as “Active”. `COC(=O)[C@H]1[C@@H](C(=O)OC[C@H]2O[C@@H](Oc3cc(O)c4c(=O)cc(-c5ccc(O[C@@H]6O[C@H](CO)[C@@H](O)[C@H](O)[C@H]6O)cc5)oc4c3)[C@H](O)[C@@H](O)[C@@H]2O)[C@H](c2ccc(O)cc2)[C@@H]1c1ccc(O)cc1` was tested, and the Activity was “Active”. With `Cc1c(C)c2c(c(C)c1O)CCC(C)(C(=O)O)O2` (stereo not given) the Activity was “Active”.
